Experimental data taken from patent US8889902B2, “Acetylsalicylic acid salts” (priority 2009, dated 2014).
Marks after values point to notes of the source that are not given here.

Experiments:
[1] = test system: serum lipid levels (C, HDL, LDL, TG); experiment: Acute hyperlipidemia model (Triton WR1339); type: in vivo, Wistar rats; conditions: TR 250 mg/kg, serum 24 h
Description: Male Wistar rats with body mass of 250-270 g were used. Animals were held in groups of 6-8 in climatized rooms at 22±1° C., relative humidity 60±5%, and 12/12-hour light/dark cycle with free access to water and feed. […] The solution of test substances or water was introduced to control and TR group animals p.o. one hour before and 20 hours after the introduction of TR as described below.
Blood for biochemical analysis was collected on the next day (24 hours after the injection of TR) by heart punction under ether narcosis. Serum was separated by centrifugation and analyzed for total cholesterol, HDL, LDL and TG levels by commercial kits.

[2] = test system: response to thermal irritation (hot plate); experiment: Mouse hot plate test; type: in vivo, mice; conditions: 100 mg/kg p.o.
[3] = test system: WBC, CRP, CIC in adjuvant arthritis; experiment: Adjuvant arthritis: WBC, CRP and CIC in blood; type: in vivo, Wistar rats; conditions: 100 mg/kg daily p.o.
Description: Our experiments were scheduled to test the influence of MASA on the progress of adjuvant arthritis in comparison with MD and ASA. Experiments were conducted on Wistar rats with starting body mass of 153-185 g. Rats were kept in climatized rooms at 22±1° C., relative humidity 60±5% and 12/12-hour light/darkness cycle. Each standard cage housed 7 rats with unlimited access to drinking water and granulated standard feed. All experiments were carried out in accordance with the European Community Council's Directive of 24 Nov. 1986 (86/609/EEC) relative to experimental animal care. All efforts were made to minimize animal suffering and to reduce the number of animals used.
A modified standard procedure for inducting and evaluating the progress of chronic adjuvant arthritis was used (Bellavite P, Ortolani R, Conforti A, Immunology and Homeopathy. 3. Experimental Studies on Animal Models, Advance Access Publication 2.05, 2006, 171-186). Rats were injected into the hind foot pad 0.1 ml and intraperitonealy with 0.05 ml of complete Freund's adjuvant solution.
Hematological indices were determined by standard methods on hematological analyzer ? PENTRA 120 ? , CRP was determined on ? INTEGRA 400+ ? . Levels of CIC in blood serum were determined spectrometrically, using […].

carrageneen paw oedema = experiment: Acute inflammatory oedema model (carrageneen test); type: in vivo, rats; conditions: 100 mg/kg p.o. 30 min after carrageneen; 4 h
Description: Experiments were conducted using carrageneen test (Winter C et al, Proc Soc Exptl Biol and Med 1962; III(3):544-547. Wei Jia et al, Journal of Ethnopharmacology 2003(89):139-141; Sutharson Lingadurai et al, African Journal of traditional, complementary and alternative medicines, 2007, 4(4):411-416) on 42 rats with body mass of 226-274 g. Single injection of carrageneen (Sigma) solution (1%) in saline (0.1 ml) was introduced in rat hind leg paw. Test substances were introduced p.o. (through catheter into rat stomach) 30 min. after the injection of carrageneen. The volume of paw was measured by oncometer at baseline and 4 hours after the injection of carrageneen.
The percentage of prevention (inhibition of oedema) was calculated according to formula: P(%)=(1−Vo/Vc)×100, where P—Prevention in % (inhibition of oedema) Vo—difference between the paw volume at baseline and at experimental conditions; Vc—analogical difference in control group.

[4] = test system: hyperthermia induced by intramuscular injection of pyrogenal; experiment: Antipyretic activity, pyrogenal hyperthermia (curative mode); type: in vivo, rats; conditions: 100 mg/kg p.o. 2 h after pyrogenal
Description: The antipyretic effect of test substances in therapeutic (curative) mode was investigated on 48 rats with body mass 182-205 g, with hyperthermia induction by injecting pyrogenal in dose 100 μg (Shwarz G Y, Syubaev R D, Vedomosti NCEG lekarstvennyh sredstv MZ RF 2000; 1:44-50 (Rus). Test substances were given p.o. 2 hours after injection of pyrogenal immediately after the recording of elevated body temperature. Rectal temperature was measured by electric thermometer TERMO before the i.m. injection of pyrogenal (baseline temperature), at the peak of hyperthermia (pyrogenal control) and 30 min. after treatment with test substance, i.e., 2½ hours after the injection of pyrogenal. Ambient temperature in laboratory was kept at 20-22° C.

[5] = test system: hyperthermia induced by intramuscular injection of pyrogenal; experiment: Preventive antipyretic activity, pyrogenal hyperthermia; type: in vivo, Wistar rats; conditions: 100 mg/kg p.o. 1 h before pyrogenal
Description: Experiments were conducted on 48 Wistar rats with body mass 165-182 g by intramuscular injection of pyrogenal (Gamalei State Research Institution, Moscow, Russia) in 100 μg dose (Shwarz G Y, Syubaev R D, Vedomosti NCEG lekarstvennyh sredstv MZ RF 2000; 1:44-50 (Rus). Test substances were given p.o. one hour before the pyrogenal injection. Rectal temperature was measured by electric thermometer TERMO before injection of pyrogenal (baseline) and for 3 hours after injection. The antipyretic activity was evaluated by the reduction of hyperthermic reaction 2 hours after injection of pyrogenal that correlated well with the published data (10) about the peak of reaction (Table 6). Ambient temperature was kept at 20-21° C.

C[N+](C)(C)NCCC(=O)[O-].O.O [MD, 3-(Trimethylammonioamino)propanoate dihydrate]
C ([1]; 150 mg/kg p.o.): 345.6 ± 34.1 mg/dL
HDL ([1]; 150 mg/kg p.o.): 63.8 ± 9.3 mg/dL
LDL ([1]; 150 mg/kg p.o.): 273.9 ± 31.6 mg/dL
TG ([1]; 150 mg/kg p.o.): 1022 ± 80.7 mg/dL
Latent period at 30 min after introduction of test substance [2]: 9.5 ± 0.68***^&& s
Latent period at 60 min after introduction of test substance [2]: 8.3 ± 0.53 s
CIC units, Day 14 [3]: 11.8 ± 2.22 units
CIC units, Day 28 [3]: 8.6 ± 0.93 units
CRP, Day 14 [3]: 0.26 ± 0.02 mg/L
CRP, Day 28 [3]: 0.17 ± 0.02 mg/L
Leucocytes (WBC), Day 14 [3]: 14.42 ± 1.41^# 10^3/mm^3
Leucocytes (WBC), Day 28 [3]: 15.55 ± 1.26^# 10^3/mm^3
Index, % (inhibition of oedema) (carrageneen paw oedema): 43%
Volume of paw after injection of carrageneen (carrageneen paw oedema): 2.13 ± 0.12 mL
Rectal temperature at 30 minutes after treatment [4]: 37.10 ± 0.14 °C
Rectal temperature 120 minutes after injection [5]: 36.2 ± 0.16 °C

O=C(O)c1cccnc1 [NA, nicotinic acid]
C ([1]; 50 mg/kg p.o.): 327.5 ± 38.4 mg/dL
HDL ([1]; 50 mg/kg p.o.): 66.5 ± 14.6 mg/dL
LDL ([1]; 50 mg/kg p.o.): 246.3 ± 32.5 mg/dL
TG ([1]; 50 mg/kg p.o.): 591 ± 43.3 mg/dL
